Assay results as given in PMC11225352, “A multicenter, randomized, double-blind, placebo-controlled ascending dose study to evaluate the safety, tolerability, pharmacokinetics (PK) and pharmacodynamic (PD) effects of Posiphen in subjects with early Alzheimer’s Disease” (Alzheimer's Research & Therapy, 2024).

What was measured:
sAPPα = assay: CSF sAPPα level, screening to day 21 (MSD immunoassay); assay type: in vivo, human; conditions: ANOVA with age and sex as covariates; p = 0.38
Description: (§1) For biochemical analysis to derive data for SILK, ^13C6-leucine was analyzed in plasma and CSF by mass spectrometry, and Aβ peptides in CSF were analyzed by immunoprecipitation-mass spectrometry (IP-MS) as previously described, by C2N Diagnostics (St Louis, MO). CSF levels of sAPPα, sAPPβ, Aβ38, 40 and 42 were analyzed by the ADCS Biomarker Core using Mesoscale Discovery (MSD) electrochemiluminescent assays (Mesoscale Discovery, Rockville, MD). Levels of Posiphen and its N1 and N8 metabolites in plasma and CSF were measured by Charles River Laboratories (Montreal, CA) by high-performance liquid chromatographic mass spectrometry, with use of deuterated Posiphen (procured by Charles River Laboratories) as an internal standard.
(§2) Changes in CSF biomarkers from the screening to confinement (sample at time of placement of catheter) were compared in the treatment and placebo groups by ANOVA, with models that included age, sex and baseline MMSE, and further analysis stratified by treatment dose. A similar approach was taken to analyze changes in MMSE, ADAS-cog and NPI. Data were analyzed using R (version 4.2.2).

Aβ38 = assay: CSF Aβ38 level, screening to day 21 (MSD immunoassay); assay type: in vivo, human; conditions: ANOVA with age and sex as covariates; p = 0.47
Description: as §1, §2

APP = assay: Post hoc comprehensive compartmental modeling of APP production rate from SILK data; assay type: in vivo, human
Description: For SILK, the fraction of labeled Aβ for Aβ38, 40, and 42 during 36 h after administration of study drug for each subject was calculated, as described. The FSR measures were calculated by fitting a line to the upslope of the CSF Aβ labeling data. It was assumed that the upslope occurred between hours 6–16 h after the start of confinement. FSR for treated and untreated subjects were compared by analysis of variance (ANOVA). The percentage of newly synthesized and degraded Aβ was estimated over 36 h by multiplying the […] concentration of Aβ measured at the start of confinement (i.e. at catheter placement; time = 0) by the percentage of Aβ that contains ^13C6-leucine at each time point. This can be used to estimate the AUC of the drug for decreasing the amount of newly produced Aβ [24]. As a post hoc analysis, the FSR measurement was also performed with different assumptions: the timeframe for measuring the upslope was automatically detected based on the slope of the SILK curve (see supplementary materials for method and code). As an additional post hoc analysis, a newer model for SILK that take into count the multiple compartments and CSF and other spaces involved in APP metabolism was also used to estimate APP production rates, as described below.
APP and Aβ production and clearance rates were determined using a recently described comprehensive model. The model accounts for the bi-hourly withdrawal of 6 mL of CSF, which is known to alter the lumbar CSF concentration of Aβ [25]. The model estimates rates of APP production, enzymatic production of Aβ, transport of Aβ from interstitial fluid (ISF) to CSF, enzymatic degradation of Aβ, blood-brain barrier transport of Aβ, as well as CSF mixing throughout the subarachnoid space (SAS) and clearance of CSF from cranial and spinal subarachnoid space (SAS). For the DISCOVER trial, MRI volumetric scans were not available, so CSF volumes (cranial, cisternal and ventricular) were estimated based on the subject’s age using data from the previous study (see Supplementary Materials). […]

[1] = Cognitive and behavioral outcomes (ADAS-cog12, MMSE, NPI); assay type: in vivo, human
Excerpt: The screening visit included history, examination, review of medical records and medications, vital signs, physical and neurological examination, cognitive testing with the MMSE and Logical Memory test (Wechsler Memory Scale-revised), EKG, blood draw for routine laboratory tests, lumbar puncture and if needed, brain MRI. If eligible, participants underwent a baseline visit, with cognitive assessment using the MMSE and ADAS-cog12, behavioral assessments, Research Satisfaction Survey, safety assessments, and review of concurrent medications and adverse events, and they received a supply of the study drug (or placebo), which they started the day after the baseline visit. A telephone assessment was done at day 14 after baseline, to assess adverse events, concomitant medication changes and remind participants/study partners about the confinement visit. A pre-confinement visit took place 1–3 days before the confinement visit, following treatment for 20 days, and included physical and neurological examination, cognitive and behavioral assessments (see below), safety assessments (including clinical safety labs), and a review of compliance, concurrent medications and adverse events. The study drug or placebo was continued until the day before the confinement visit.
Safety measures included adverse events, vital signs, EKG and laboratory tests. The Mini-Mental State Examination (MMSE), Alzheimer’s Disease Assessment Scale-cognitive (ADAS-cog12) and Neuropsychiatric Inventory (NPI) were used as cognitive and behavioral outcomes,.
as §2

cholinesterase = test system: cholinesterase; parameters: method as in PMID 11404470; conditions: cited from earlier work

## CN1CC[C@]2(C)c3cc(OC(=O)Nc4ccccc4)ccc3N(C)[C@H]12 [Posiphen]
sAPPα
  CSF sAPPα, Treatment difference (Posiphen – placebo): 9.99 (10.8) p = 0.38 pg/mL
Aβ38
  CSF Aβ38, Treatment difference (Posiphen – placebo): -0.202 (0.27) p = 0.47 pg/mL
APP; model with pre-drug lumbar CSF concentration as covariate
  APP production, placebo vs 120 mg per day group: showed significance
APP; single 180 mg per day subject
  APP production rate: low
APP; subjects receiving 120 or 180 mg per day, differences not significant by non-parametric analysis
  APP production rates: trended lower
[1]; Posiphen (n = 11), mITT, baseline 8.36 ± 9.52
  NPI, mean change from baseline to pre-confinement: -0.45 ± 7.01
[1]; Posiphen (n = 11), mITT, baseline 24.36 ± 2.8
  MMSE, Pre-confinement: 24.18 ± 2.52
[1]; Posiphen (n = 11), mITT, baseline 25.73 ± 8.76
  ADAS-Cog12, Pre-confinement: 25.18 ± 5.33
[1]; Posiphen or placebo groups
  ADAS-cog, MMSE or NPI total scores, change from baseline to pre-confinement visit: no significant changes
[1]; baseline to pre-confinement, Posiphen (n = 11), placebo 1.14 ± 2.12
  MMSE, Mean change: -0.18 ± 2.09
[1]; baseline to pre-confinement, Posiphen (n = 11), placebo -1.57 ± 5.19
  ADAS-Cog12, Mean change: -0.55 ± 6.04
[1]; contrast 60 mg – placebo, multiple linear regression (age, sex, APOE genotype, baseline score, arm), p 0.68
  ADAS-cog change, t: 0.42
[1]; contrast 60 mg – placebo, multiple linear regression, p 0.006
  MMSE change, t: -3.32
[1]; contrast 60 mg – placebo, multiple linear regression, p 0.51
  NPI change, t: 0.68
[1]; contrast 120 mg - placebo, multiple linear regression, p 0.02
  NPI change, t: 2.73
[1]; contrast 120 mg - placebo, multiple linear regression, p 0.24
  MMSE change, t: 1.2
[1]; contrast 120 mg - placebo, multiple linear regression, p 0.30
  ADAS-cog change, t: 1.1
[1]; contrast 180 mg - placebo, multiple linear regression, p 0.77
  ADAS-cog change, t: 029
[1]; contrast 180 mg - placebo, multiple linear regression, p 0.91
  NPI change, t: 0.12
[1]; mITT, p = 0.11
  NPI, Treatment difference (Posiphen – placebo): 7.10 ± 4.07 p = 0.11
[1]; mITT, p = 0.32
  ADAS-Cog12, Treatment difference (Posiphen – placebo): 3.00 ± 2.94 p = 0.32
[1]; mITT, p= 0.23
  MMSE, Treatment difference (Posiphen – placebo): -1.6 ± 1.28 p= 0.23
cholinesterase
  anticholinesterase activity: does not
